The values below come from patent US20180353489A1, “Antibacterial Pharmaceutical Combination and Method for Treating Gram-Negative Bacteria Infections” (TENNOR THERAPEUTICS (SUZHOU) LIMITED, priority 2016, published 2018).

Like-named read-outs stand apart in the source and are kept apart here.

The subject of assay [1] is Escherichia coli ATCC 25922. Put plainly: Checkerboard MBC test. The conditions noted are these: for MBC99.9/MIC / MBC99.9: used separately. Format: cell-based. From the text: (§1) A standard 96-well plate checkerboard test platform for the determination of Minimum Inhibitory Concentration (MIC) and Minimum Bactericidal Concentration (MBC) as endpoints is used for the test of the antibacterial activity of the pharmaceutical combination in vitro. Escherichia coli ATCC 25922 strain is used as the representative strain of Gram-negative bacteria in initial investigations. The correlation between the observed results and the major Gram-negative bacteria in hospital—Pseudomonas aeruginosa, Klebsiella pneumoniae, Acinetobacter baumannii and Stenotrophomonas maltophilia—is assessed by a similar method.
Minimum inhibitory concentration (MIC) endpoints of the combination of TNP-2092 and polymyxin B or E were determined by the two-agent checkerboard assay method based on the CLSI broth microdilution susceptibility method. To obtain a 96-well plate for each pharmaceutical combination, two separate intermediate dilution plates were prepared as described. A sufficient volume of a standard cell inoculum of ˜5×10^5 CFU/mL was prepared in cation adjusted Mueller Hinton broth with 0.002% (vol:vol) polysorbate-80 using the direct colony suspension method. 0.2 mL of the above suspension was added to the wells in the first column of a first 96-well plate (ID-1), and 0.1 mL of the suspension was added to all remaining wells. 0.2 mL of the same cell inoculum suspension was added to the wells in the first row of a second plate (ID-2), and 0.1 mL of suspension was added to all the remaining wells. An appropriately concentrated drug stock “compound-1” (representing one of the two drugs to be tested in the combination) was added to each well in the first column of the plate ID-1. This was then diluted serially two-fold across the plate, changing tips at each transfer, until column 11 was reached. From column 11, 0.1 mL was removed and discarded and column 12 contains only cell inoculum and no drug. Next, an appropriately concentrated drug stock “Compound 2” (representing the second of the two agents to be tested in the combination) was then diluted into each well of row 1 in plate ID2. This was then diluted serially two-fold down the plate, changing tips at each transfer, until row 7 was reached. 0.1 mL was removed from row 7 and discarded and row 8 contains only cell inoculum and no drug. Finally, 0.05 mL was transferred from both ID1 and ID2 into a third 96 well “destination MIC test plate” (see FIG. 1). […] Column 12 is used to call the MIC of compound 2 alone and row 8 is used to call the MIC of compound 1 when tested alone. Note that the intersection of row 8 and column 12 contains no drug and serves as the growth control. The “destination MIC test plates” were then incubated statically at 35° C. for 18-24 h and the MIC of each agent alone or in combination was read visually.
For minimum bactericidal concentration (MBC) endpoints, 0.008 mL portions of each well, after MICs were called, were transferred from the MIC test plates by an automatic sampler to a charcoal agar omni recipient plate. Drops were allowed to air dry in a biological cabinet and the plates incubated inverted for 18-24 h a 35° C. The MBC was scored as the lowest consecutive antimicrobial drug concentration required to kill ≥99.9% of viable input test organisms in 18-24 h, or ≤5 CFU remaining per 0.008 mL drop
(§2) In vitro fractional inhibitory concentration (FIC) was calculated using the following formula: […]
FIC (Fractional inhibitory concentration) or FBC (fractional bactericidal concentration) results were interpreted as synergistic, additive, indifferent, or antagonistic. In cases where no endpoint was observed and the MIC/MBC could not be called, then for the purpose of algebraic calculations, the endpoint was arbitrarily assumed to be one dilution greater than the tested range

In assay [2] the test system is Escherichia coli ATCC 25922. Put plainly: Checkerboard broth microdilution MIC test. The class given is cell-based.
Excerpt: as §1
Escherichia coli ATCC 25922 is a quality control strain for MIC testing as recommended by the Clinical and Laboratory Standards Institute (CLSI), which was obtained originally from the American Type Culture Collection (ATCC) repository and was used as a model of Gram-negative pathogen described herein. Other Gram-negative bacteria strains, including two strains of Pseudomonas aeruginosa, two strains of Klebsiella pneumoniae, Acinetobacter baumannii and Stenotrophomonas maltophilia, were also obtained from ATCC.
Minimum inhibitory concentration (MIC) endpoints of the combination of TNP-2092 and polymyxin B or E were determined by the two-agent checkerboard assay method based on the CLSI broth microdilution susceptibility method. To obtain a 96-well plate for each pharmaceutical combination, two separate intermediate dilution plates were prepared as described. A sufficient volume of a standard cell inoculum of ˜5×10^5 CFU/mL was prepared in cation adjusted Mueller Hinton broth with 0.002% (vol:vol) polysorbate-80 using the direct colony suspension method. […] The “destination MIC test plates” were then incubated statically at 35° C. for 18-24 h and the MIC of each agent alone or in combination was read visually.
as §2

Broadly, the MIC is the least concentration at which growth counts as inhibited. In the case of `CO[C@H]1/C=C/O[C@@]2(C)Oc3c(C)c(O)c4c(O)c(c(/C=N/N5CCC(N(C)C6([C@@H]7CCN(c8c(F)cn9c(=O)c(C(=O)O)cc(C%10CC%10)c9c8C)C7)CC6)CC5)c(O)c4c3C2=O)NC(=O)/C(C)=C\C=C\[C@H](C)[C@H](O)[C@@H](C)[C@@H](O)[C@@H](C)[C@H](OC(C)=O)[C@@H]1C` [TNP-2092], in assay [1] (ATCC25922, used separately, read-out: MBC99.9), the MBC was found to be 0.25 µg/mL. Also, the MBC99.9/MIC in assay [1] stood at 1. Also, in assay [2] (ATCC25922, used separately, read-out: MIC), the MIC was 0.25 µg/mL.

Take polymyxin B: in assay [1], the MBC99.9 stood at 8 µg/mL and the MBC99.9/MIC was 4. Further, the MIC in assay [2] (used separately) worked out at 2 µg/mL.

Turning to polymyxin E, in assay [1], the MBC99.9 amounted to 8 µg/mL and the MBC99.9/MIC turned out to be 8. Also, the MIC in assay [2] (used separately) is 1 µg/mL.
